Assay results: ChEMBL document CHEMBL6115027, “Bisboronic Ester-Enabled Redox-Targeted Cancer Therapy: A Cascade ROS Consumption Approach for Efficient Elimination of Cancer Cells” (J Med Chem, 2025)
Each block holds one compound with its values, some of them ahead of it. Active and inactive are the calls of the source. The rule behind the calls is not given here.

How the values were obtained:
HeLa [1] = test: Cytotoxicity against human HeLa cells assessed as reduction in cell viability incubated for 24 hrs by CCK-8 assay; format: functional, cell-based
[2] = Reactivity of compound assessed as consumption of H2O2 by measuring phenol intermediate formation after 1 hr relative to control; format: physicochemical
T-24 = test: Cytotoxicity against human T24 cells assessed as reduction in cell viability incubated for 24 hrs by CCK-8 assay; format: functional, cell-based; conditions: T-24, 24 h
HeLa [3] = test: Induction of ROS generation in human HeLa cells assessed as increase in ROS level incubated for 1 to 36 hrs by DCFH-DA staining based confocal imaging analysis; format: functional, cell-based; conditions: time 1-36 hrs
HeLa [4] = test: Induction of ROS generation in human HeLa cells assessed as increase in ROS level incubated for 48 hrs by DCFH-DA staining based confocal imaging analysis; format: functional, cell-based
HeLa [5] = test: Induction of apoptosis in human HeLa cells assessed as viable cells at 6.8 uM incubated for 48 hrs by Annexin V-Alexa fluor 647 and propidium iodide staining based flow cytometry relative to control; format: functional; conditions: read-out: Activity
HeLa [6] = test: Induction of apoptosis in human HeLa cells assessed as early apoptotic cells at 6.8 uM incubated for 48 hrs by Annexin V-Alexa fluor 647 and propidium iodide staining based flow cytometry relative to control; format: functional
HeLa [7] = test: Induction of apoptosis in human HeLa cells assessed as late apoptotic cells at 6.8 uM incubated for 48 hrs by Annexin V-Alexa fluor 647 and propidium iodide staining based flow cytometry relative to control; format: functional
HeLa [8] = test: Induction of apoptosis in human HeLa cells assessed as necrotic cells at 6.8 uM incubated for 48 hrs by Annexin V-Alexa fluor 647 and propidium iodide staining based flow cytometry relative to control; format: functional
HeLa [9] = test: Induction of apoptosis in human HeLa cells assessed as viable cells at 13.6 uM incubated for 48 hrs by Annexin V-Alexa fluor 647 and propidium iodide staining based flow cytometry relative to control; format: functional; conditions: read-out: Activity
HeLa [10] = test: Induction of apoptosis in human HeLa cells assessed as early apoptotic cells at 13.6 uM incubated for 48 hrs by Annexin V-Alexa fluor 647 and propidium iodide staining based flow cytometry relative to control; format: functional
HeLa [11] = test: Induction of apoptosis in human HeLa cells assessed as late apoptotic cells at 13.6 uM incubated for 48 hrs by Annexin V-Alexa fluor 647 and propidium iodide staining based flow cytometry relative to control; format: functional
HeLa [12] = test: Induction of apoptosis in human HeLa cells assessed as necrotic cells at 13.6 uM incubated for 48 hrs by Annexin V-Alexa fluor 647 and propidium iodide staining based flow cytometry relative to control; format: functional
HeLa [13] = test: Induction of apoptosis in human HeLa cells assessed as viable cells at 27.2 uM incubated for 48 hrs by Annexin V-Alexa fluor 647 and propidium iodide staining based flow cytometry relative to control; format: functional; conditions: read-out: Activity
HeLa [14] = test: Induction of apoptosis in human HeLa cells assessed as early apoptotic cells at 27.2 uM incubated for 48 hrs by Annexin V-Alexa fluor 647 and propidium iodide staining based flow cytometry relative to control; format: functional
HeLa [15] = test: Induction of apoptosis in human HeLa cells assessed as late apoptotic cells at 27.2 uM incubated for 48 hrs by Annexin V-Alexa fluor 647 and propidium iodide staining based flow cytometry relative to control; format: functional
HeLa [16] = test: Induction of apoptosis in human HeLa cells assessed as necrotic cells at 27.2 uM incubated for 48 hrs by Annexin V-Alexa fluor 647 and propidium iodide staining based flow cytometry relative to control; format: functional
HeLa [17] = test: Induction of autophagy in human HeLa cells assessed as change in caspase 1 activity at 5.44 uM incubated for 48 hrs by MDC staining based flow cytometric analysis (reference value: 0.06); format: functional
HeLa [18] = test: Induction of autophagy in human HeLa cells assessed as change in caspase 1 activity at 10.88 uM incubated for 48 hrs by MDC staining based flow cytometric analysis (reference value: 0.06); format: functional
HeLa [19] = test: Induction of autophagy in human HeLa cells assessed as change in caspase 1 activity at 21.76 uM incubated for 48 hrs by MDC staining based flow cytometric analysis (reference value: 0.06); format: functional
HeLa [20] = test: Induction of autophagy in human HeLa cells assessed as change in caspase 1 activity at 43.52 uM incubated for 48 hrs by MDC staining based flow cytometric analysis (reference value: 0.06; format: functional
HeLa [21] = test: Induction of autophagy in human HeLa cells assessed as change in caspase 1 activity at 87.04 uM incubated for 48 hrs by MDC staining based flow cytometric analysis (reference value: 0.06); format: functional
HeLa [22] = test: Induction of autophagy in human HeLa cells assessed as change in caspase 4 activity at 5.44 uM incubated for 48 hrs at wavelength of 405 nm by MDC staining based flow cytometric analysis (reference value: 0.052); format: functional
HeLa [23] = test: Induction of autophagy in human HeLa cells assessed as change in caspase 4 activity at 10.88 uM incubated for 48 hrs at wavelength of 405 nm by MDC staining based flow cytometric analysis (reference value: 0.052); format: functional
HeLa [24] = test: Induction of autophagy in human HeLa cells assessed as change in caspase 4 activity at 21.76 uM incubated for 48 hrs at wavelength of 405 nm by MDC staining based flow cytometric analysis (reference value: 0.052); format: functional
HeLa [25] = test: Induction of autophagy in human HeLa cells assessed as change in caspase 4 activity at 43.52 uM incubated for 48 hrs at wavelength of 405 nm by MDC staining based flow cytometric analysis (reference value: 0.052); format: functional
HeLa [26] = test: Induction of autophagy in human HeLa cells assessed as change in caspase 4 activity at 87.04 uM incubated for 48 hrs at wavelength of 405 nm by MDC staining based flow cytometric analysis (reference value: 0.052); format: functional
HeLa [27] = test: Induction of pyroptosis in human HeLa cells at 10.88 to 43.52 uM; format: functional, cell-based; conditions: dose 10.88-43.52 µM

Activity [2]: 96%
Structure (SMILES): CC1(C)OB(c2ccc(-c3ccc(B4OC(C)(C)C(C)(C)O4)cc3)cc2)OC1(C)C
IC50 (HeLa [1]): 1.95 µM

Structure (SMILES): COc1ccc(-c2ccc(OC)c(B3OC(C)(C)C(C)(C)O3)c2)cc1B1OC(C)(C)C(C)(C)O1
IC50 (HeLa [1]): 0.83 µM

Structure (SMILES): CCC1(CC)OB(c2ccc(Cc3ccc(B4OC(C)(C)C(C)(C)O4)cc3)cc2)OC1(CC)CC
IC50 (HeLa [1]): 2.11 µM

Structure (SMILES): Cc1cc(B2OC(C)(C)C(C)(C)O2)cc(-c2cc(C)cc(B3OC(C)(C)C(C)(C)O3)c2)c1
IC50 (HeLa [1]): 0.79 µM

Structure (SMILES): CC1(C)OB(c2cc(F)ccc2CCc2ccc(F)cc2B2OC(C)(C)C(C)(C)O2)OC1(C)C
IC50 (HeLa [1]): 1.8 µM

Structure (SMILES): CC1(C)OB(c2cc(C(F)(F)F)ccc2CCc2ccc(C(F)(F)F)cc2B2OC(C)(C)C(C)(C)O2)OC1(C)C
IC50 (HeLa [1]): 0.7 µM

Structure (SMILES): CC1(C)COB(c2cccc(CCc3cccc(B4OCC(C)(C)CO4)c3)c2)OC1
IC50 (HeLa [1]): 3.44 µM

Structure (SMILES): CC1(C)OB(c2ccc(-c3ccc(B4OC(C)(C)C(C)(C)O4)c4ccccc34)c3ccccc23)OC1(C)C
IC50 (HeLa [1]): 0.69 µM

Structure (SMILES): CC1(C)COB(c2ccc(CCc3ccc(B4OCC(C)(C)CO4)cc3)cc2)OC1
IC50 (HeLa [1]): 0.87 µM

Structure (SMILES): CC1(C)OB(c2ccc(CCc3ccc(B4OC(C)(C)C(C)(C)O4)c4ccccc34)c3ccccc23)OC1(C)C
IC50 (HeLa [1]): 3.44 µM

Structure (SMILES): CC1(C)OB(c2cc(C(=O)Oc3ccc(-c4ccccc4)cc3)cc(-c3cc(B4OC(C)(C)C(C)(C)O4)cc(C(=O)Oc4ccc(-c5ccccc5)cc4)c3)c2)OC1(C)C
IC50 (HeLa [1]): 0.7 µM

Structure (SMILES): CC1(C)OB(c2ccc(-c3ccc(-c4ccc(-c5ccc(B6OC(C)(C)C(C)(C)O6)cc5)cc4)cc3)cc2)OC1(C)C
IC50 (HeLa [1]): 2.27 µM

Structure (SMILES): CC1(C)OB(c2cccc(CCc3cccc(B4OC(C)(C)C(C)(C)O4)c3F)c2F)OC1(C)C
IC50 (HeLa [1]): 11.8 µM

Structure (SMILES): CC1(C)OB(c2ccc(Cc3ccc(B4OC(C)(C)C(C)(C)O4)c4ccccc34)cc2)OC1(C)C
IC50 (HeLa [1]): 0.63 µM

Structure (SMILES): CC1(C)OB(c2ccc(CCc3ccc(B4OC(C)(C)C(C)(C)O4)cc3)cc2)OC1(C)C
IC50 (HeLa [1]): 0.71 µM

Structure (SMILES): CC1(C)OB(c2cc(C(=O)Oc3ccc4c(c3)OCO4)cc(-c3cc(B4OC(C)(C)C(C)(C)O4)cc(C(=O)Oc4ccc5c(c4)OCO5)c3)c2)OC1(C)C
IC50 (HeLa [1]): 1 µM

Structure (SMILES): CC1(C)OB(c2ccc(F)c(CCc3cc(B4OC(C)(C)C(C)(C)O4)ccc3F)c2)OC1(C)C
IC50 (HeLa [1]): 0.68 µM
IC50 (T-24): 1.14 µM
Activity (HeLa [3]): inactive
Activity (HeLa [4]): Active
viability at 6.8 µM (HeLa [5]): 96.1%
Activity (HeLa [6]): 1.43%
Activity (HeLa [7]): 0.073%
Activity (HeLa [8]): 0.38%
viability at 13.6 µM (HeLa [9]): 95.6%
Activity (HeLa [10]): 2.44%
Activity (HeLa [11]): 0.41%
Activity (HeLa [12]): 1.54%
viability at 27.2 µM (HeLa [13]): 93.7%
Activity (HeLa [14]): 4.28%
Activity (HeLa [15]): 0.63%
Activity (HeLa [16]): 1.41%
OD (HeLa [17]): 0.058
OD (HeLa [18]): 0.062
OD (HeLa [19]): 0.06
OD (HeLa [20]): 0.061
OD (HeLa [21]): 0.062
OD (HeLa [22]): 0.052
OD (HeLa [23]): 0.053
OD (HeLa [24]): 0.051
OD (HeLa [25]): 0.051
OD (HeLa [26]): 0.051
Activity (HeLa [27]): Active

Structure (SMILES): CC1(C)OB(c2ccc(-c3ccc(B4OC(C)(C)C(C)(C)O4)c(F)c3)cc2F)OC1(C)C
IC50 (HeLa [1]): 2.6 µM

Structure (SMILES): CC(C)(C)c1cc(B2OC(C)(C)C(C)(C)O2)cc(-c2cc(B3OC(C)(C)C(C)(C)O3)cc(C(C)(C)C)c2)c1
IC50 (HeLa [1]): 0.9 µM

Structure (SMILES): CC1(C)OB(c2ccc(Cc3ccc(B4OC(C)(C)C(C)(C)O4)cc3)cc2)OC1(C)C
IC50 (HeLa [1]): 3.15 µM
